Results published in US20240174637A1, “DEGRADERS OF GRK2 AND USES THEREOF” (Sonata Therapeutics, Inc., priority 2021, published 2024).
Where two headings read alike, the source gives them in different places. One block for each compound: values may come before it.

Columns and labels:
GRK2 [1] = molecular target: T1, GRK2 (Homo sapiens, UniProt P25098); assay: Second ADPGlo GRK2 Inhibition Assay (Example 3); assay type: biochemical; conditions: ADP-Glo, 20 μM ATP; read-out: Second ADPGlo Enzymatic GRK2 Assay: IC50 (nM) (Example 3)
T1 sequence (P25098 1-689): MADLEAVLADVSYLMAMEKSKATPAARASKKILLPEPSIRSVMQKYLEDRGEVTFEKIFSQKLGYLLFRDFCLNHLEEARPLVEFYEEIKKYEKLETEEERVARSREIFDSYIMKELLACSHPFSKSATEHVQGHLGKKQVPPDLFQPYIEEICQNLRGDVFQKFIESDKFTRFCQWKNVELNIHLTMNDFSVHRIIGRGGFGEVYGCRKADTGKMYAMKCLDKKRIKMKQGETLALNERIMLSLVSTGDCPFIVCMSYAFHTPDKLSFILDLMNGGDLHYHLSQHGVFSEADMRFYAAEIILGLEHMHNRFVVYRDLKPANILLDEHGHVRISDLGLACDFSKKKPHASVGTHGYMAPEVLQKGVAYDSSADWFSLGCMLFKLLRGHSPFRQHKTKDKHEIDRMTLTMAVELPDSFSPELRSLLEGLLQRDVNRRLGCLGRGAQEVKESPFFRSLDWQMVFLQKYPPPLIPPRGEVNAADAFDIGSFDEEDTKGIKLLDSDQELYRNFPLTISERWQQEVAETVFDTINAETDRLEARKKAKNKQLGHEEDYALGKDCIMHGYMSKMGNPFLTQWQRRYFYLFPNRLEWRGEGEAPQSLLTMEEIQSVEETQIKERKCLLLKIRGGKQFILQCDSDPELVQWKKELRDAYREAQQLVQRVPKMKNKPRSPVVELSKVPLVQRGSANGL
Experimental: Assay: GRK2 (2 nM) was incubated with ATP (20 μM) and GRKtide (1.2 mg/mL) in 11 μL of assay buffer (see above) for 180 min at room temperature. Compounds were dissolved in 100% DMSO, serially diluted 3.16-fold from 100 μM with 10 concentration points and transferred as 100× into assay plate (final compounds concentration in the reaction plate from 1 μM).
Materials: GRK2 was purchased from SignalChem (Cat #A14-10G, Lot #X645-3). Substrate GRKtide was from SignalChem (Cat #G46-58, Lot #R339-6). ADP-Glo Kinase Assay from Promega (Cat #V9102). Assay buffer consisted of 20 mM HEPES (pH7.5), 20 mM MgCl2, 0.01% Tween-20, 0.05 mM DDT. 384-well white plates were from Corning (Cat #4513).
HTS protocol: Add 5.5 μL of 2× substrate-enzyme mix into all columns except of 1-2 and 24 of reaction plate. Spin 15 seconds at 200 g. Transfer 1 ul of compounds from the plate with serial dilutions (384 well plate with 22 uL of compound in columns 3-22/DMSO solution 1-2,23-24) to Dilution plate (384 well plate with 49 uL of buffer with 2×40 μM ATP). After mixing transfer 5.5 ul from Dilution plate to Reaction plate (to 5.5 μL of 2× substrate-enzyme mix). Spin 15 seconds at 200 g and incubate for 180 min at room temperature with sealing. Add 3 μL ADP-Glo reagent to all the wells. Spin 15 seconds at 200 g and incubate for 40 min at room temperature. Add 6 μL Detection solution to all the wells. Incubate for 30 min at room temperature. Read plate using ClarioStar Plus (BMG).
Data Analysis: Data were analyzed in GraphPad Prism 5.0.2. Each HTS plate contains compounds in columns 3-22, controls (enzyme, no compound) in column 23, and blanks (no enzyme) in columns 2. HTS percent inhibition was calculated for each compound from the signal in luminescence units and the mean of the plate controls and the mean of the plate blanks using the following equation: % Inhibition=100*(1-(signal-blank mean)/(control mean-blank mean)).

PAXF1657 EV = assay: 7-day cellular proliferation assay (CellTiter-Glo), PAXF1657 EV; assay type: cell-based
Procedure, shortened: (§1)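 Seven-day growth in PAXF1657 lines engineered for GRK2 overexpression or knockout, measured by CellTiter-Glo; compounds tested at 30 μM-0.0002 μM final and replenished once at day 3.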

GRK2 [2] = molecular target: T1, GRK2; assay: GRK2 Degradation Assay and Western Blot in PAXF1657 cells; assay type: cell-based; set-up: endogenous in cells; host or cells: PAXF1657
Procedure, shortened: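 PAXF1657 cells grown to 70% confluency, then treated with compounds at 0–10 μM for 6 to 24 h at 37 °C. Lysates in PBS with 1% NP40 run on SDS-PAGE. GRK2 protein detected by western blot with β-actin as loading reference, using ECL chemiluminescence.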

PAXF1657 KO Clone #4 = assay: 7-day cellular proliferation assay (CellTiter-Glo), PAXF1657 KO Clone #4; assay type: cell-based
Procedure, shortened: as §1

GRK2 [3] = molecular target: T1, GRK2; assay: GRK2 Inhibition Assay (TR-FRET, Example 1); assay type: biochemical; conditions: Table 4; Example 1 assay; read-out: Enzymatic GRK2 IC50: Av IC50 GRK2
Procedure, shortened: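 GRK2 (1 nM) pre-incubated 30 min RT with compounds in HEPES/MgCl2/DTT/Tween-20/EGTA buffer, then reacted 90 min RT with 7 μM ATP and 50 nM ULight-TopoIIα substrate. Stopped with EDTA plus Eu anti-TopoIIα antibody; TR-FRET read after 60 min.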

[4] = 168 h, 7-day, read-out: 7-day proliferation assay: IC50 GeoMean (uM) [Cell Line: PAXF1657 EV]
[5] = 0.3 uM, PAXF1657 EV, 24 hrs, read-out: % GRK2 degradation at 0.3 uM in PAXF1657 EV (24 hrs)
[6] = 1 uM, PAXF1657 EV, 24 hrs, read-out: % GRK2 degradation at 1 uM in PAXF1657 EV (24 hrs)
[7] = 3 uM, PAXF1657 EV, 24 hrs, read-out: % GRK2 degradation at 3 uM in PAXF1657 EV (24 hrs)
[8] = 168 h, 7-day, read-out: 7-day proliferation assay: IC50 GeoMean (uM) [Cell Line: PAXF1657 KO Clone #4]
[9] = proliferation, read-out: GeoMean IC50 (UM) PAXF1657 EV
[10] = Conc 0.3 uM, read-out: Degradation Assay - 3 point: Degradation (%)
[11] = Conc 1 uM, read-out: Degradation Assay - 3 point: Degradation (%)
[12] = Conc 3 uM, read-out: Degradation Assay - 3 point: Degradation (%)
[13] = proliferation, read-out: GeoMean IC50 (uM) PAXF1657 KO Clone #4

Compound: Cn1c(CNc2cccc(C(=O)NCc3cccc(OCCCCCCOCCOCCOCCCC(=O)Nc4cccc5c4CN(C4CCC(=O)NC4=O)C5=O)c3)c2)nnc1-c1ccncn1 (stereo not drawn) [Compound D56]
IC50 (GRK2 [1]): < 100 nM
IC50 (PAXF1657 EV; [4]): 1 to 10 µM
inhibition at 0.3 µM (GRK2 [2]; [5]): 25%
inhibition at 1 µM (GRK2 [2]; [6]): 52%
inhibition at 3 µM (GRK2 [2]; [7]): 64%
IC50 (PAXF1657 KO Clone #4; [8]): > 10 µM

Compound: Cn1c(CNc2cccc(C(=O)NCc3cccc(OCCCCCCCn4cc(CCCCC(=O)Nc5cccc6c5CN(C5CCC(=O)NC5=O)C6=O)nn4)c3)c2)nnc1-c1ccncn1 (stereo not drawn) [Compound D60]
IC50 (GRK2 [1]): < 100 nM
IC50 (PAXF1657 EV; [4]): > 10 µM
inhibition at 0.3 µM (GRK2 [2]; [5]): -3%
inhibition at 1 µM (GRK2 [2]; [6]): 13%
inhibition at 3 µM (GRK2 [2]; [7]): 69%
IC50 (PAXF1657 KO Clone #4; [8]): > 10 µM

Compound: Cn1c(CNc2cccc(C(=O)NCc3cccc(OCCCCCCn4cc(CCCCC(=O)Nc5cccc6c5CN(C5CCC(=O)NC5=O)C6=O)nn4)c3)c2)nnc1-c1ccncn1 (stereo not drawn) [Compound D62]
IC50 (GRK2 [1]): < 100 nM
IC50 (PAXF1657 EV; [4]): > 10 µM
inhibition at 0.3 µM (GRK2 [2]; [5]): 35%
inhibition at 1 µM (GRK2 [2]; [6]): 56%
inhibition at 3 µM (GRK2 [2]; [7]): 75%
IC50 (PAXF1657 KO Clone #4; [8]): > 10 µM

Compound: Cn1c(CNc2cccc(C(=O)NCc3cccc(OCCCCCCC(=O)Nc4cccc5c4CN(C4CCC(=O)NC4=O)C5=O)c3)c2)nnc1-c1ccncn1 (stereo not drawn) [Compound D69]
IC50 (GRK2 [1]): < 100 nM

Compound: COc1cc(OCCNC(=O)CCCCCC(=O)N[C@H](C(=O)C2C[C@H](O)C[C@H]2C(=O)NCc2ccc(-c3scnc3C)cc2)C(C)(C)C)ccc1CNC(=O)c1cccc(NCc2nnc(-c3ccncn3)n2C)c1 (stereo partly drawn) [Compound D93]
IC50 (GRK2 [1]): < 100 nM

Compound: COc1cc(OCC(=O)NCCOCCOCCNC(=O)COCC(=O)N[C@H](C(=O)N2C[C@H](O)C[C@H]2C(=O)NCc2ccc(-c3scnc3C)cc2)C(C)(C)C)ccc1CNC(=O)c1cccc(NCc2nnc(-c3ccncn3)n2C)c1 [Compound D94]
IC50 (GRK2 [1]): 100 to 1000 nM

Compound: COc1cc(OCC(=O)NCCOCCOCC(=O)N[C@H](C(=O)N2C[C@H](O)C[C@H]2C(=O)NCc2ccc(-c3scnc3C)cc2)C(C)(C)C)ccc1CNC(=O)c1cccc(NCc2nnc(-c3ccncn3)n2C)c1 [Compound D95]
IC50 (GRK2 [1]): < 100 nM

Compound: Cn1c(CNc2cccc(C(=O)NCc3cc(OCCCCCOCCCOCC(=O)Nc4cccc5c4CN(C4CCC(=O)NC4=O)C5=O)ccc3F)c2)nnc1-c1ccncn1 (stereo not drawn) [Compound D197, N-(5-(5-(3-(2-(2-(2,6-dioxopiperidin-3-yl)-1-oxoisoindolin-4-ylamino)-2-oxoethoxy)propoxy)pentyloxy)-2-fluorobenzyl)-3-((4-methyl-5-(pyrimidin-4-yl)-4H-1,2,4-triazol-3-yl)methylamino)benzamide]
IC50 (GRK2 [3]): 82.3 nM
IC50 (PAXF1657 EV; [9]): 5.89 µM
inhibition at 0.3 µM (GRK2 [2]; [10]): -6.8%
inhibition at 1 µM (GRK2 [2]; [11]): 27.7%
inhibition at 3 µM (GRK2 [2]; [12]): 54.5%
IC50 (PAXF1657 KO Clone #4; [13]): > 30 µM

The next lines start with results.

IC50 (GRK2 [1]): < 100 nM
Compound: Cn1c(CNc2cccc(C(=O)NCc3cccc(OCCCCCCOCCOCCCCCC(=O)Nc4cccc5c4CN(C4CCC(=O)NC4=O)C5=O)c3)c2)nnc1-c1ccncn1 (stereo not drawn) [Compound D52]

IC50 (GRK2 [1]): < 100 nM
inhibition at 0.3 µM (GRK2 [2]; [5]): 36%
inhibition at 1 µM (GRK2 [2]; [6]): 64%
inhibition at 3 µM (GRK2 [2]; [7]): 67%
Compound: Cn1c(CNc2cccc(C(=O)NCc3ccc(OCCCCCCOCCOCCOCCCCCC(=O)Nc4cccc5c4CN(C4CCC(=O)NC4=O)C5=O)cc3)c2)nnc1-c1ccncn1 (stereo not drawn) [Compound D65]
IC50 (PAXF1657 EV; [4]): < 1 µM
IC50 (PAXF1657 KO Clone #4; [8]): > 10 µM

IC50 (GRK2 [1]): > 1000 nM
Compound: COc1cc(OCCNC(=O)CCOCCOCCOCCNC(=O)Nc2cccc3c2CN(C2CCC(=O)NC2=O)C3=O)ccc1CNC(=O)c1cccc(NCc2nnc(-c3ccncn3)n2C)c1 (stereo not drawn) [Compound D68]

IC50 (GRK2 [1]): < 100 nM
Compound: Cn1c(CNc2cccc(C(=O)NCc3cccc(OCCCC(=O)Nc4cccc5c4CN(C4CCC(=O)NC4=O)C5=O)c3)c2)nnc1-c1ccncn1 (stereo not drawn) [Compound D70]

IC50 (GRK2 [1]): < 100 nM
Compound: Cc1ncsc1-c1ccc(CNC(=O)[C@@H]2C[C@@H](O)CN2C(=O)[C@@H](NC(=O)CCCCCOCCOCCCCCCOc2cccc(CNC(=O)c3cccc(NCc4nnc(-c5ccncn5)n4C)c3)c2)C(C)(C)C)cc1 [Compound D76]

IC50 (GRK2 [1]): < 100 nM
Compound: Cc1ncsc1-c1ccc(CNC(=O)[C@@H]2C[C@@H](O)CN2C(=O)[C@@H](NC(=O)CCCCCOCCCCCOCCCCCCOc2cccc(CNC(=O)c3cccc(NCc4nnc(-c5ccncn5)n4C)c3)c2)C(C)(C)C)cc1 [Compound D98]

IC50 (GRK2 [3]): 23.8 nM
inhibition at 0.3 µM (GRK2 [2]; [10]): 66.2%
inhibition at 1 µM (GRK2 [2]; [11]): 71.1%
inhibition at 3 µM (GRK2 [2]; [12]): 38.9%
Compound: C[C@@H](NC(=O)c1cccc(NCc2nnc(-c3ccncn3)n2C)c1)c1cccc(OCCCCCOCCCOCCNc2cccc3c2CN(C2CCC(=O)NC2=O)C3=O)c1 (stereo partly drawn) [Compound D196, N-((1R)-1-(3-(5-(3-(2-(2-(2,6-dioxopiperidin-3-yl)-1-oxoisoindolin-4-ylamino)ethoxy)propoxy)pentyloxy)phenyl)ethyl)-3-((4-methyl-5-(pyrimidin-4-yl)-4H-1,2,4-triazol-3-yl)methylamino)benzamide]
IC50 (PAXF1657 EV; [9]): 0.36 µM
IC50 (PAXF1657 KO Clone #4; [13]): > 30 µM

IC50 (GRK2 [3]): 22.1 nM
inhibition at 0.3 µM (GRK2 [2]; [10]): 83.9%
inhibition at 1 µM (GRK2 [2]; [11]): 81.6%
inhibition at 3 µM (GRK2 [2]; [12]): 50.3%
Compound: C[C@@H](NC(=O)c1cccc(NCc2nnc(-c3ccncn3)n2C)c1)c1cccc(OCCCCCOCCCOCCOc2cccc3c2CN(C2CCC(=O)NC2=O)C3=O)c1 (stereo partly drawn) [Compound D198, N-((1R)-1-(3-((5-(3-(2-((2-(2,6-dioxopiperidin-3-yl)-1-oxoisoindolin-4-yl)oxy)ethoxy)propoxy)pentyl)oxy)phenyl)ethyl)-3-(((4-methyl-5-(pyrimidin-4-yl)-4H-1,2,4-triazol-3-yl)methyl)amino)benzamide]
IC50 (PAXF1657 EV; [9]): 0.01 µM
IC50 (PAXF1657 KO Clone #4; [13]): > 30 µM
